Test results taken from patent publication US9061981B2, “Diphenyl substituted cyclohexane derivatives, useful as modulators of the estrogen receptors beta” (Acadia Pharmaceuticals Inc., priority 2011, dated 2015).

Key:
[1] = Unidirectional permeability across MatTek EpiOral buccal tissue; format: in vitro ADME, human
Protocol: EpiOral→tissues plated in 24-well plates were obtained from MatTek Corporation (Ashland, Mass., USA). The assay buffer was Dulbeccos' Phosphate Buffered Saline (DPBS) without Ca & Mg chloride, pH 7.4. Each test compound was co-dosed with the two control compounds. Targeting dosing concentrations were 10 μM for each test compound and 100 μM for the two control compounds. Prior to the permeability assay onset, the tissues were preequilibrated in a pre-warmed EpiOral assay medium for one hour at 37° C. in a 5% CO2 incubator. The EpiOral assay medium was aspirated after the pre-equilibration, and the tissues were washed twice with the DPBS buffer. The receiver chambers were filled with 0.75 mL of the DPBS buffer, while the donor chambers received 0.4 mL of the dosing solutions. The assay plates were placed at 37° C. in a 5% CO2 incubator. The receiver samples (200 μL) were collected at 30, 60, and 120 minutes, and replaced with an equal volume of fresh pre-warmed receiver buffer (except for the last time point of 120 minutes). The donor sides were sampled at 0 and 120 minutes. The test compounds were then analyzed using LC-MS/MS.

ERβ [2] = target: T1, ERβ (Homo sapiens, UniProt Q92731); experiment: Luciferase reporter gene assay (3*ERE) in HEK293 cells, ERβ; format: cell-based; parameters: expressed in transfected cells; host or cells: HEK293 cells, transient transfection; settings: for Emax: HEK293, 48 h, read-out: Luciferase Erβ % Eff
Protocol: HEK293 cells were grown to 70% confluency in DMEM containing 10% calf serum (Hyclone) prior to transfection. On the day of transfection (day 1), expression vectors for ERα or ERβ were cotransfected along a construct containing a synthetic 3*ERE upstream of the luciferase gene (Panomics), using Polyfect (Qiagen) per manufacturer's recommendations (ERE being estrogen response element). Sixteen hours post-transfection, cells were incubated in serum free DMEM. […] Cells extracts were then obtained by lyzing and the Luciferase activity measured, all of these steps performed using a commercially available kit (Promega).

[3] = test system: bilateral 6-hydroxydopamine (6OHDA) lesion of the substantia nigra; experiment: Bilateral 6OHDA lesion of the substantia nigra, behavioral assessment; format: in vivo, Male rats; settings: for prepulse inhibition (sensorimotor gating): 6OHDA rats, once daily 7 days sc, 10 mg/kg (estradiol 100 μg/kg); for motor performance (spontaneous locomotor activity, rotorod, challenging beam) / novel object recognition (cognition): rat, in vivo; for novel object recognition (cognition): sc, 10 mg/kg
Protocol: (§1) Male rats received baseline assessment of weight, motor function (spontaneous locomotor behavior, rotorod performance) and sensorimotor gating (prepulse inhibition). Subjects were assigned to treatment conditions to equalize performance on all these measures. Subjects were then treated once daily for 7 days with either sesame oil vehicle, estradiol (100 μg/kg sc), Comparative substance 131 (10 mg/kg sc), Compound 8 (10 mg/kg sc), Comparative substance 623 (10 mg/kg sc) or Comparative substance 957 (10 mg/kg sc). On the second day of treatment, subjects received bilateral sham or 6OHDA lesions (8 μg in 4 μl) of the substantia nigra (A/P−5.0 mm, M/L±1.6 mm, D/V−8.2 mm) following the atlas of Paxinos and Watson (Paxinos, G., Watson, C., The Rat Brain in Stereotaxic Coordinates, Fourth Edition, New York: Academic Press, Spiral Bound, 1998). Behavioral assessments of motor function (spontaneous locomotion, rotorod and traversing a challenging beam), cognition (novel object recognition) and sensorimotor gating (prepulse inhibition) began after the final day of treatment. Following behavioral assessment, SN and striatal tissue were collected in order to determine the intactness of the nigrostriatal dopamine system.

[4] = test system: nigrostriatal dopamine neurons; experiment: Tyrosine hydroxylase immunofluorescence in SN and STR after 6OHDA lesion; format: in vivo, Male rats; settings: 6OHDA rats, once daily 7 days sc; 10 mg/kg (estradiol 100 μg/kg)
Protocol: as §1
Comparative compound 131 and Compound 8 were compared with estradiol for their ability to protect nigrostriatal dopamine neurons as measured by tyrosine hydroxylase (TH) immunohistochemistry in the SN and striatum (STR).

ERβ [5] = target: T1, ERβ; experiment: Competitive 3H-estradiol binding assay, ERβ; parameters: expressed in transfected cells; host or cells: HEK293 cells, transient transfection
Protocol: Cells were then harvested by scraping in ice-cold PBS and subsequently lysed using a cold buffer containing 10 mM Tris pH 7.4, 1 mM EDTA, 1 mM DTT before being subjected to polytron twice for 10 seconds. Cytosolic extracts were isolated by centrifugation at 15000 g for 30 minutes at 4° C. Competitive binding of the test compounds or the estradiol control was performed on 20 μL extract by overnight incubation at 4° C. in a total volume of 100 μL containing 1 nM ^3H-estradiol (Perkin Elmer, Boston, Mass.). The bound fraction was separated from the unbound one by the addition of 100 μL of Dextran coated charcoal, incubated for 10 minutes and subsequent centrifugation at 1000 rpm for 10 minutes. Samples (100 μL per sample) were then analyzed by liquid scintillation. Data was then analyzed using the curve fitting software GraphPad Prism.

ERβ [6] = target: T1, ERβ; experiment: R-SAT functional assay, ERβ; format: cell-based; parameters: expressed in transfected cells; host or cells: transient transfection; settings: NIH3T3, read-out: R-SAT Erβ % Eff
Source text: R-SAT® (Receptor Selection and Amplification Technology) is a cell-based functional assay that allows one to monitor receptor-dependent proliferative responses and has been described elsewhere. […] This process is achieved by partial cellular transformation via loss of contact inhibition and growth factor dependency. Monitoring is achieved by transfecting the cells with a β-galactosidase reporter gene vector whose expression is under a constitutively active promoter. Briefly, NIH-3T3 fibroblasts were plated overnight in 96-wells plates in DMEM 10% calf serum (Hyclone) and grown to 60-70% confluency prior to transfection. Transient transfections were performed using Polyfect (Qiagen) according to manufacturer's instructions. Typically a transfection mix would consist of the receptor and the β-galactosidase expression vectors. Sixteen hours post-transfection, cells were incubated with different doses of ligand in DMEM containing 30% Ultraculture (Hyclone) and 0.4% calf serum (Hyclone) to generate a dose response curve. […] Plates were read using a microplate reader at 420 nm. Data from R-SAT® assays were fit to the equation: r=A+B(x/(x+c)), where A=minimum response, B=maximum response minus minimum response, c=EC50, r=response, and x=concentration of ligand. Curves were generated using the curve fitting softwares Excel Fit and GraphPad Prism (San Diego, Calif.). Luciferase Reporter Gene Assay

T1 sequence (Q92731 whole entry, species assumed): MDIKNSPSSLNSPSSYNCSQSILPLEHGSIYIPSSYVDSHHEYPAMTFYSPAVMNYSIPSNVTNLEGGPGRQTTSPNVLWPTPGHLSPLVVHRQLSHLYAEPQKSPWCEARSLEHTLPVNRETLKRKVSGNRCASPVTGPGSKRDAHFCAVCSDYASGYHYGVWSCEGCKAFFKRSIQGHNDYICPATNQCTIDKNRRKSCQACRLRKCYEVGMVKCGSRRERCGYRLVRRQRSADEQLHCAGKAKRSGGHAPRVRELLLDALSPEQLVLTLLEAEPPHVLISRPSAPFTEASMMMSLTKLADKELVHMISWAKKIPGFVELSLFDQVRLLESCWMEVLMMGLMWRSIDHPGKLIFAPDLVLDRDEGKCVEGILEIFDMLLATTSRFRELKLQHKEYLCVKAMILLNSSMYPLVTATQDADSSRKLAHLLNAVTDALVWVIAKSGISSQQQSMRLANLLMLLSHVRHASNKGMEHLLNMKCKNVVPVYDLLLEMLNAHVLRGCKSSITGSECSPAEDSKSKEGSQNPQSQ

SMILES	permeability classification in MatTek EpiOral buccal tissue [1]	EC50 (ERβ [2]) [nM]	Emax (ERβ [2]) [%]	prepulse inhibition (sensorimotor gating) [3]	motor performance (spontaneous locomotor activity, rotorod, challenging beam) [3]	novel object recognition (cognition) [3]	percent immunopositive and mean pixel intensity of TH immunofluorescence in the STR [4]	percent immunopositive, mean cell size and mean pixel intensity of TH immunofluorescence in the SN [4]	tyrosine hydroxylase positive cell number in the SN [4]	Ki (ERβ [5]) [nM]	Emax (ERβ [6]) [%]
Oc1ccc(C2(c3ccccc3F)CCC(F)(F)CC2)cc1 [Compound 8, 4-(4,4-Difluoro-1-(2-fluorophenyl)cyclohexyl)phenol]	highly permeable	0.631	96	prevented the 6OHDA-induced deficit in PPI	prevented the impairment	showed improved memory	increase in percentage of the image that was immunopositive and increased mean pixel intensity	improved percent immunopositive, mean cell size and mean pixel intensity	prevented the reduction in cell number	6.31	69
Oc1ccc(C2(c3cccc(F)c3Cl)CCCCC2)cc1 [Compound 623]	low permeability	5.01	99	prevented the 6OHDA-induced deficit in PPI	prevented the impairment	showed improved memory	–	improved percent immunopositive, mean cell size and mean pixel intensity	prevented the reduction in cell number	6.31	89
Oc1ccc(C2(c3ccccc3Cl)CCCCC2)cc1F [Compound 957]	low permeability	1.26	62	prevented the 6OHDA-induced deficit in PPI	prevented the impairment	did not reverse the cognitive deficit	–	improved percent immunopositive, mean cell size and mean pixel intensity	prevented the reduction in cell number	15.8	94
